{"source": "patent US20240299429A1", "about": "“PREVENTIVE AND THERAPEUTIC AGENT FOR URINARY TRACT INFECTION CONTAINING 1-DEOXYMANNOSE” (SUNUS CO., LTD., priority 2022, published 2024)", "key": {"[1]": {"tested_on": "Escherichia coli (NBRC 3301)", "assay": "Utilization of sugars by Escherichia coli (turbidity in M9 minimal medium)", "format": "cell-based", "details": "1% sugar in M9 minimal medium, 37° C., compared with mannose and glucose", "protocol": "In order to evaluate the utilization of 1-deoxymannose by Escherichia coli (NBRC 3301), the following experiment was conducted.\nM9 minimal medium (obtained by adding MgSO4 and CaCl2 to Difco™ M9 Minimal Salt) containing 2 ml of 1% glucose was used. Escherichia coli (NBRC 3301) was subjected to shaking at 37° C. for 17 hours to prepare a culture solution. 10 μL of the culture solution was added to 2 ml of M9 minimal media containing 1%1-deoxymannose, 1% mannose, and 1% glucose, respectively, followed by shaking culture at 37° C. During culture, 100 μL of the culture solution was serially sampled and measured for its turbidity (600 nm) using a cell with an optical path length of 1 cm. The growth of Escherichia coli was evaluated based on increased turbidity. The results of the measurement are shown in FIG. 3, in which Example 2, Comparative Example 2, and Comparative Example 3 correspond to the culture solution containing 1-deoxymannose, the culture solution containing mannose, and the culture solution containing glucose, respectively."}, "[2]": {"assay": "Urinary concentration after oral administration to human subjects (HPLC)", "format": "in vivo", "details": "1 g oral", "protocol": "HPLC devices: PU2089 plus, AS2055 plus and RI2031 plus (series number) manufactured by JASCO Corporation; MODEL 556 manufactured by GL Sciences Inc. • Columns: MITSUBISHI MCI GEL CK08S; two columns coupled together • Oven temperature: 60° C. • Eluent: Water • Detector: Differential refractometer • Flow rate: 1 ml/minute • Injection volume: 100 μL\nThe determination of 1-deoxymannose was carried out using a calibration curve produced by using the 1-deoxymannose prepared as above. The determination of mannose was carried out using a calibration curve produced by using special grade mannose as a reagent.\n(§1) 1 g of 1-deoxymannose was dissolved in water to prepare a 20% w/w solution as a sample for oral administration. Urine was collected from six human subjects before administration of the sample. The total amount of sample was administered orally to each of the subjects, and the total amount of urine was collected one, two, three, four, six and eight hours after the administration. The urine collected at each of the points in time was subjected to volume measurement, and then filtered through a membrane filter with a pore size of 0.2 μm, followed by measurement of urinary 1-deoxymannose concentration by HPLC analysis.\nMannose, instead of 1-deoxymannose, was orally administered, followed by collection of urine, in the same manner as in Example 1. […]"}, "[3]": {"assay": "Urinary recovery rate after oral administration", "format": "in vivo", "details": "urine; 1 g oral, human, up to eight hours after administration", "protocol": "as §1\nThe urinary recovery rate of 1-deoxymannose was determined by dividing the amount of recovered 1-deoxymannose, which was obtained from the collected urine volume and the urinary 1-deoxymannose concentration, by the dose. The urinary recovery rate is expressed by the following formula:\n[formula] • Vn: Urine volume [ml] n hour (s) after administration • Cn: Urinary 1-deoxymannose concentration [mg/ml] n hour (s) after administration • M: Dose of 1-deoxymannose (=1000 mg)"}, "[4]": {"assay": "Urine volume after oral administration", "format": "in vivo", "details": "1 g oral, human, all points in time up to eight hours", "protocol": "as §1\nMannose, instead of 1-deoxymannose, was orally administered, followed by collection of urine, in the same manner as in Example 1.\nIn FIG. 2, the vertical axis indicates the percentage of the urine volume after administration of 1-deoxymannose in Example 1 relative to the urine volume after administration of mannose in Comparative Example 1 taken as 100%, at the respective points in time."}, "Fim H lectin": {"target": "Fim H lectin (Escherichia coli, UniProt P08191)", "sequence (P08191 22-300)": "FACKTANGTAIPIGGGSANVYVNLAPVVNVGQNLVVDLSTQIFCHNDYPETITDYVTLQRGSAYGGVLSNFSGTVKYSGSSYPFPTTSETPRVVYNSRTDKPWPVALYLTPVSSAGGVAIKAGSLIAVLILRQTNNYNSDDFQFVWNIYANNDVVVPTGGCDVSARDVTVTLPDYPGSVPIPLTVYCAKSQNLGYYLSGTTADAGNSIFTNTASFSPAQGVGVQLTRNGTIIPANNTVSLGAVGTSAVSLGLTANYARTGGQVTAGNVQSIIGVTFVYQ", "details": "read-out: dissociation constant (KD) against Fim H lectin (converted), cited from earlier work"}}, "note": "Read-outs that look alike come from different tables or passages of the source."}
{"compound": "OC[C@H]1OC[C@@H](O)[C@@H](O)[C@@H]1O", "note": "[1-deoxymannose, 1,5-anhydro-D-mannitol]", "values": [{"measurement": "turbidity (600 nm) of Escherichia coli culture, growth", "setting": "[1]", "value": "did not have increased turbidity"}, {"measurement": "highest urinary concentration", "setting": "[2]; average of six subjects, two hours after administration", "value": 2.12, "unit": "mg/mL"}, {"measurement": "detection in urine", "setting": "[2]; six subjects, urine collected one to eight hours after administration, detection limit 0.1 mg/ml", "value": "detected"}, {"measurement": "dose excreted", "setting": "[3]", "value": "43.3 ± 9.03", "unit": "%"}, {"measurement": "urine volume versus mannose administration group", "setting": "[4]", "value": "larger volume of urine"}, {"measurement": "Kd", "setting": "Fim H lectin; expressed as mass concentration", "value": 1130, "unit": "nM"}, {"measurement": "Kd", "setting": "Fim H lectin", "value": 1130, "unit": "nM"}]}
